Measured values as given in patent publication US20230416221A1, “DIHYDROISOQUINOLINONE AND ISOINDOLINONE DERIVATIVES AND USES THEREOF” (HEFEI INSTITUTES OF PHYSICAL SCIENCE, CHINESE ACADEMY OF …, priority 2020, published 2023).
Where two headings read alike, the source gives them in different places.

Columns and labels:
[1] = tested on: human liver cancer cell line HepG2; experiment: Growth of cancer cells, Cell Titer-Glo GI50, HepG2; type: cell-based; settings: incubated for 72 hours
[2] = tested on: acute myeloid leukemia cell line MOLM13; experiment: Growth of cancer cells, Cell Titer-Glo GI50, MOLM13; type: cell-based
[3] = tested on: acute myeloid leukemia cell line MOLM14; experiment: Growth of cancer cells, Cell Titer-Glo GI50, MOLM14; type: cell-based; settings: read-out: GI50 MOLM 14
[4] = tested on: MOLM13 drug resistant strain MOLM13 BR1; experiment: Growth of drug resistant strain MOLM13 BR1, Cell Titer-Glo GI50; type: cell-based; settings: 72 hours
[5] = tested on: HepG2 drug resistant strain HepG2 CDK9 KI C20-1; experiment: Growth of drug resistant strain HepG2 KI C20-1, Cell Titer-Glo GI50; type: cell-based, human; settings: for GI50 HepG2 CDK9 KI C20-1: CDK9 resistant mutation knockin HepG2 monoclone, 72 hours, Cell Titer-Glo
[6] = tested on: acute myeloid leukemia cell line MV4-11; experiment: Growth of cancer cells, Cell Titer-Glo GI50, MV4-11; settings: read-out: GI50 MV4-11
[7] = tested on: human colorectal cancer cell HCT116; experiment: Growth of cancer cells, Cell Titer-Glo GI50, HCT116; type: cell-based; settings: Homo sapiens, HCT-116, incubated for 72 hours
[8] = tested on: human chronic myeloid leukemia cell K562; experiment: Growth of cancer cells, Cell Titer-Glo GI50, K562; type: cell-based; settings: read-out: GI50 K562
[9] = tested on: human colorectal cancer cell DLD1; experiment: Growth of cancer cells, Cell Titer-Glo GI50, DLD1; type: cell-based; settings: Homo sapiens, DLD-1, incubated for 72 hours
[10] = biological target: CDK9-L156F mut/CyclinT1 mutant protein (Homo sapiens (Human), UniProt P50750, L156F); experiment: Enzyme activity assay of CDK9 mutant protein inhibition in vitro, CDK9-L156F mut/CyclinT1
[11] = tested on: histiocytic lymphoma U-937; experiment: Growth of cancer cells, Cell Titer-Glo GI50, U937; type: cell-based; settings: Homo sapiens, read-out: GI50 U937
[12] = tested on: acute myeloid leukemia cell line OCI-AML-3; experiment: Growth of cancer cells, Cell Titer-Glo GI50, OCI-AML-3; type: cell-based; settings: Homo sapiens, read-out: GI50 AML3
CDK9/CyclinT1 protein = CDK9/CyclinT1 protein (Homo sapiens (Human), UniProt P50750); experiment: Enzyme activity assay of CDK9 protein inhibition in vitro, CDK9/CyclinT1
[13] = tested on: human ovarian granulosa tumor cell COV434; experiment: Growth of cancer cells, Cell Titer-Glo GI50, COV434; type: cell-based; settings: Homo sapiens, COV434, 72 h, read-out: GI50 COV434
CDK9 = CDK9 (Homo sapiens (Human), UniProt P50750); experiment: Binding activity of compound and CDK9, split luciferase system (C37-CL / CDK9-NL) in HEK-293T cells; type: cell-based
Excerpt: The plasmid of split luciferase system was constructed by molecular cloning technology. The N-terminal domain (NLuc) and C-terminal domain (CLuc) of luciferase were respectively cloned and inserted into the vector PCDNA3 to construct NLuc-PCDNA3 and CLuc-PCDNA3 vectors, and the polyclonal sites were reserved at both ends of the sequence. Then CDC37 and CDK9 were cloned into the corresponding vectors to construct C37-CL and CDK9-NL vectors. C37-CL plasmid sequence is shown in SEQ ID NO. 1. CDK9-NL plasmid sequence is shown in SEQ ID NO. 2.
The mixed transfection complex was added to the 10 cm cell culture dish and cultured at 37° C. and 5% CO2 for 24 hours. […] After counting, the transfected cells were placed in a 96-well white Corning cell culture plate (purchased from Corning, U.S.) with 100 μL, 5000 cells/well. After 12 hours, the medium was removed from the 96-well plate and 100 μL culture medium containing corresponding concentration of the testing compound was added, which was cultured continuously for 12 hours. After 12 hours, 20 μL Luciferase-Glo (purchased from Promega, U.S.) testing reagent was added to each well. After mixing, the […] value was detected using a microplate reader.

[14] = Homo sapiens, MOLM-13, incubated for 72 hours, Cell Titer-Glo, Table 2, read-out: GI50 MOLM13
[15] = Homo sapiens, MOLM-14, incubated for 72 hours, Cell Titer-Glo
[16] = Homo sapiens, MOLM-13, BAY1251152-resistant MOLM13 strain
[17] = Homo sapiens, K562, incubated for 72 hours, Cell Titer-Glo
[18] = U-937, incubated for 72 hours, Cell Titer-Glo
[19] = incubated for 72 hours, Cell Titer-Glo
[20] = Homo sapiens, MOLM-13, incubated for 72 hours, Cell Titer-Glo, Table 1, read-out: GI50 MOLM 13

Sequence of CDK9/CyclinT1 protein (P50750 whole entry): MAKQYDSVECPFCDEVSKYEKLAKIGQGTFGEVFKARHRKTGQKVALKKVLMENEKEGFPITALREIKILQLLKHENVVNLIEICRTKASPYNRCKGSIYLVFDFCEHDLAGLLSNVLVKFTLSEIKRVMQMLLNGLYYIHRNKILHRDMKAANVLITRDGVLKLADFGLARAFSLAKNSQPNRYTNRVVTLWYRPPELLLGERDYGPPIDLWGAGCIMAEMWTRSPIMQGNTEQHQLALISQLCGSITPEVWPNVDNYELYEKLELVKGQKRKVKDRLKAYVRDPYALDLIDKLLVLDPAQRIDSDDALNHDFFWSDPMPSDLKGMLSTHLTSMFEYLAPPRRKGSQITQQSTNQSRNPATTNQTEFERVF
Sequence of CDK9/CyclinT1 protein (O60563 whole entry partner): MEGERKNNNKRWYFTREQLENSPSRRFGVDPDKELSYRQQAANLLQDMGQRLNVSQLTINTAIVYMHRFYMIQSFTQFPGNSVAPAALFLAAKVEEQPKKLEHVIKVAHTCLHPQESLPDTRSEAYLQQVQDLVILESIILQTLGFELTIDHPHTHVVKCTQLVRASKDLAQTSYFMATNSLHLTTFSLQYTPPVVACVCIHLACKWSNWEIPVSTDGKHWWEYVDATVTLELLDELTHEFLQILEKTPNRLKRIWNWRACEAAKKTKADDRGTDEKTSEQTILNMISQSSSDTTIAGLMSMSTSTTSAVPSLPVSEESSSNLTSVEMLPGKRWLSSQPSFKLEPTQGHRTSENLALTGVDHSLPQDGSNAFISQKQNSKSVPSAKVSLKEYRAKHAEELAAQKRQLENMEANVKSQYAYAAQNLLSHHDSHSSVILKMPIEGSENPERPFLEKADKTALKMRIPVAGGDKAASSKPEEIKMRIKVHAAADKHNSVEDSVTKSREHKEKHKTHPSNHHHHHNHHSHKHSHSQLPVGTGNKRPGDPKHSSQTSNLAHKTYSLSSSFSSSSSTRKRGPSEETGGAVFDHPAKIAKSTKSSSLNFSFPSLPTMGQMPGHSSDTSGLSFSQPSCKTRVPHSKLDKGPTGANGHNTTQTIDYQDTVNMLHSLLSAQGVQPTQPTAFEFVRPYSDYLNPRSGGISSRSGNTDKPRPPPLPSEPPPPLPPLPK
Sequence of CDK9 (P50750 whole entry, the tested form may be a part): as the sequence (P50750 whole entry) above
Sequence of CDK9-L156F mut/CyclinT1 mutant protein (P50750 whole entry L156F): as the sequence (P50750 whole entry) above, with L156F counted along it
Sequence of CDK9-L156F mut/CyclinT1 mutant protein (O60563 whole entry partner): as the sequence (O60563 whole entry partner) above

Structure (SMILES)	GI50 [3, 15] [nM]	GI50 [4, 16] [nM]	GI50 ([6]; Homo sapiens, MV4-11, 72 h) [nM]	GI50 [8, 17] [nM]	GI50 [11, 18] [nM]	GI50 [12, 19] [nM]	GI50 [2, 20] [nM]	IC50 (CDK9/CyclinT1 protein) [nM]	IC50 (CDK9) [nM]	other results
COc1cc(F)ccc1-c1cc(Nc2cc(CS(C)(=N)=O)ccn2)ncc1F (centres unmarked) [BAY1251152, reference compound]	40	1190	27							GI50 ([1]; Table 3): 36.1 nM; GI50 [2, 14]: 38 nM; GI50 HepG2 CDK9 KI C20-1 [5]: >1000 nM; drug resistance on the drug resistant strain of liver cancer cell HepG2 ([5]; result in words): obvious drug resistance
COCCNC1CCC(Nc2nccc(-c3ccc4c(c3)C(C(C)C)(C(C)C)CNC4=O)n2)CC1 (centres unmarked) [Compound 14, 4,4-diisopropyl-6-(2-(((1r,4r)-4-((2-methoxyethyl)amino)cyclohexyl)amino)pyrimidin-4-yl)-3,4-dihydroisoquinolin-1(2H)-one]		8.26	17	26						GI50 ([1]; Table 1): 23 nM; GI50 [7]: 12 nM; GI50 [2, 14]: 7.08 nM; GI50 [9]: 63 nM
COCCN[C@H]1CC[C@H](Nc2nccc(-c3ccc4c(c3)C(C(C)C)(C(C)C)CNC4=O)n2)CC1 [Compound 14, 4,4-diisopropyl-6-(2-(((1r,4r)-4-((2-methoxyethyl)amino)cyclohexyl)amino)pyrimidin-4-yl)-3,4-dihydroisoquinolin-1(2H)-one]										IC50 [10]: 98.6 nM
CC1(C)CNC(=O)c2ccc(-c3ccnc(Nc4cccc(CS(C)(=O)=O)c4)n3)cc21 [Compound 28, 4,4-dimethyl-6-(2-((3-((methylsulfonyl)methyl)phenyl)amino)pyrimidin-4-yl)-3,4-dihydroisoquinolin-1(2H)-one]			2							GI50 ([11]; U-937, 72 h): 2 nM; GI50 ([12]; 72 h): 2 nM; GI50 ([2]; Homo sapiens, MOLM-13, 72 h, read-out: GI50 MOLM 13): 1 nM; GI50 ([3]; Homo sapiens, MOLM-14, 72 h): 2 nM; GI50 ([8]; Homo sapiens, K562, 72 h): 10 nM
CN(C)S(=O)(=O)c1cccc(Nc2nccc(-c3ccc4c(c3)C(C)(C)CNC4=O)n2)c1 [Compound 29, 3-((4-(4,4-dimethyl-1-oxo1,2,3,4-tetrahydroisoquinolin-6-yl)pyrimidin-2-yl)amino)-N,N-dimethylbenzenesulfonamide]	59		57	942	186	153	35	27		
CN1CCC(NC(=O)c2cccc(Nc3nccc(-c4ccc5c(c4)C(C)(C)CNC5=O)n3)c2)CC1 [Compound 33, 3-((4-(4,4-dimethyl-1-oxo-1,2,3,4-tetrahydroisoquinolin-6-yl)pyrimidin-2-yl)amino)-N-(1-methylpiperidin-4-yl)benzamide]			6	77	63	48	10			GI50 [13]: 8 nM
CC1(C)CNC(=O)c2ccc(-c3ccnc(Nc4ccc(F)c(NS(C)(=O)=O)c4)n3)cc21 [Compound 34, N-(5-((4-(4,4-dimethyl-1-oxo-1,2,3,4-tetrahydroisoquinolin-6-yl)pyrimidin-2-yl)amino)-2-fluorophenyl)methanesulfamide]			4	24	7	8	11	6.1	50	GI50 [13]: 9 nM
CC1(C)CNC(=O)c2ccc(-c3ccnc(Nc4cccc(N5CCCNCC5)c4)n3)cc21 [Compound 35, 6-(2-((3-(1,4-homopiperazin-1-yl)phenyl)amino)pyrimidin-4-yl)-4,4-dimethyl-3,4-dihydroisoquinolin-1(2H)-one]		1.69	< 1	25	23	33	< 1		300	GI50 ([1]; Table 3): 87.4 nM; GI50 [13]: < 1 nM; GI50 HepG2 CDK9 KI C20-1 [5]: 138.5 nM
CN1CCN(c2cccc(Nc3nccc(-c4ccc5c(c4)C(C)(C)CNC5=O)n3)c2)CC1 [Compound 37, 4,4-dimethyl-6-(2-((3-(4-methylpiperazin-1-yl)phenyl)amino)pyrimidin-4-yl)-3,4-dihydroisoquinolin-1(2H)-one]	< 1	3.05	< 1	31			< 1		49	GI50 ([1]; Table 3): 27.8 nM; GI50 HepG2 CDK9 KI C20-1 [5]: 74.8 nM
CN1CCN(c2ccc(Nc3nccc(-c4ccc5c(c4)C(C)(C)CNC5=O)n3)cc2)CC1 [Compound 40, 4,4-dimethyl-6-(2-((4-(4-methylpiperazin-1-yl)phenyl)amino)pyrimidin-4-yl)-3,4-dihydroisoquinolin-1(2H)-one]	5.8	4.39	1.7	25	4.6	5	3	6.6	67	
CN1CCC(NC(=O)c2cc(Nc3nccc(-c4ccc5c(c4)C(C)(C)CNC5=O)n3)ccc2F)CC1 [Compound 41]	25		6.6	84	13	23	11	2.5	114	
CC(C)N1CCN(c2cc(Nc3ncc(F)c(-c4ccc5c(c4)C(C)(C)CNC5=O)n3)ccc2F)CC1 [Compound 80, 6-(5-fluoro-2-((4-fluoro-3-(4-isopropylpiperazin-1-yl)phenyl)amino)pyrimidin-4-yl)-4,4-dimethyl-3,4-dihydroisoquinolin-1(2H)-one]	7.2	12.3		15			3.3			GI50 [2, 14]: 11.6 nM
Cc1ccc(Nc2nccc(-c3ccc4c(c3)C(C)(C)CNC4=O)n2)cc1N1CCN(C)CC1 [Compound 82, 4,4-methyl-6-(2-((4-methyl-3-(4-methylpiperazin-1-yl)phenyl)amino)pyrimidin-4-yl)-dihydroisoquinolin-1(2H)-one]	0.8	1.71		26			< 1	2.6		GI50 [2, 14]: 0.845 nM; IC50 [10]: 105 nM
CC(=O)N[C@@H]1CCC[C@H](C(=O)Nc2cc(-c3ccc4c(c3)C(C)(C)CNC4=O)c(Cl)cn2)C1 [Compound 96, (1S,3R)-3-acetylamino-N-(5-chloro-4-(4,4-dimethyl-1-oxo-1,2,3,4-tetrahydroisoquinolin-6-yl)pyridin-2-yl)cyclohexyl-1-formamide]										GI50 ([2]; incubated for 72 hours, Cell Titer-Glo, Table 1, read-out: GI50 MOLM 13): 8 nM; GI50 [3, 19]: 17 nM; GI50 [8, 19]: 72 nM; GI50 ([4]; BAY1251152-resistant MOLM13 strain): 5.6 nM; GI50 [6, 19]: 9 nM; IC50 (CDK9/CyclinT1 protein; read-out: CDK9/CyclinT1 Protein activity (IC50)): 0.52 nM
